The source of these data is US11759455B2, “Substituted 1H-imidazo[4,5-b]pyridin-2(3H)-ones and their use as GLUN2B receptor modulators” (JANSSEN PHARMACEUTICA NV, priority 2016, dated 2023).

Each structure is given as a SMILES string. Read-outs that look alike come from different tables or passages of the source. Where only a bound is given, the exact number is not on record here.

For this test, the target named is T1, human GluN1/GluN2B NMDA receptors (Homo sapiens, UniProt Q13224).
T1 construct: expressed in transfected cells
T1 sequence (Q13224 27-1484, other chains not shown): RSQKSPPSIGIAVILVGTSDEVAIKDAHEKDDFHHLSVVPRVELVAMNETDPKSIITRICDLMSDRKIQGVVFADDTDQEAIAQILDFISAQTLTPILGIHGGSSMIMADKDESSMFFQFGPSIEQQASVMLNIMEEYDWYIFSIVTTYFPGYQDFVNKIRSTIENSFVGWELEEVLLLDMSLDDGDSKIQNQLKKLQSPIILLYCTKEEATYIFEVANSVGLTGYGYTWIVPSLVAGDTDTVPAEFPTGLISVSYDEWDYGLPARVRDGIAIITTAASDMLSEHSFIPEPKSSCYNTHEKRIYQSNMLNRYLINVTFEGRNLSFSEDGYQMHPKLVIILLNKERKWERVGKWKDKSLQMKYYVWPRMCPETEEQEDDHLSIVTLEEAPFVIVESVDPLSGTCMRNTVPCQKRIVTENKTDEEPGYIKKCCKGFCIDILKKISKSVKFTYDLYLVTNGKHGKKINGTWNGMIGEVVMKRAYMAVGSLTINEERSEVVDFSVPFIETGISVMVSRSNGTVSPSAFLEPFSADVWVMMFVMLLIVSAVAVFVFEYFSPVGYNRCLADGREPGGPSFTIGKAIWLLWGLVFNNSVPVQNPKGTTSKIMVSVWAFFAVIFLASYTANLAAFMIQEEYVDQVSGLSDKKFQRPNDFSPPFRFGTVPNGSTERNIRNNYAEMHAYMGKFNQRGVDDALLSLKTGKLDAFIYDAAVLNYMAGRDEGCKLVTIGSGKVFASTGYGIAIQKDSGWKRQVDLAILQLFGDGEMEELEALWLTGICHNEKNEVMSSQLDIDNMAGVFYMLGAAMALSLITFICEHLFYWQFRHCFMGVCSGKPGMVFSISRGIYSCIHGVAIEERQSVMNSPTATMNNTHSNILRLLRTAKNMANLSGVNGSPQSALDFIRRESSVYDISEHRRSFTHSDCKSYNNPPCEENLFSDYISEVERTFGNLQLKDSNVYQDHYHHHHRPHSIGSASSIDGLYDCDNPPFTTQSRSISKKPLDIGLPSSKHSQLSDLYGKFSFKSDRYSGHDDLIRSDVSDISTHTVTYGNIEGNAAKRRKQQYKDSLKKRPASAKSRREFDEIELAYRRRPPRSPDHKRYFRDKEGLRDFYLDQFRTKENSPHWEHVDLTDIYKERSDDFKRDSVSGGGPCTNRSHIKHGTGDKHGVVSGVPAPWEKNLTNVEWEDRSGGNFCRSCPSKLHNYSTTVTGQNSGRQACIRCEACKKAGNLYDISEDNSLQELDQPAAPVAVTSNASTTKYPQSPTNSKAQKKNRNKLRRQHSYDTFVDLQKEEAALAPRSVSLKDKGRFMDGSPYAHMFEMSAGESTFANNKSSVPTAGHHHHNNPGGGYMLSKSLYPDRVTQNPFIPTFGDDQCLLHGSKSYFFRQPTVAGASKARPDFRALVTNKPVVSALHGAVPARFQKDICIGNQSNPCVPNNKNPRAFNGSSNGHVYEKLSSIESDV
Description: Cell-based calcium flux (FLIPR) assay on cloned human NR1/NR2B ion channels expressed in mammalian cells (standard and HTS buffer variants).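 Further: stable Tet-On inducible cell line, Ca2+ influx triggered by glutamate at about EC40 plus 10 µM glycine, fluorescent dye read-out over 5 min, normalized to control wells.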

The mark [1] stands for this setting: standard assay buffer (0.5 mM MgCl2 dye loading; 137 mM NaCl, 4 mM KCl assay buffer), human GluN1/GluN2B cells, read-out: NR2B IC50 (μM) standard assay.
The mark [2] stands for this setting: standard assay buffer (0.5 mM MgCl2 in dye loading buffer; 137 mM NaCl, 4 mM KCl in assay buffer), human GluN1/GluN2B, read-out: NR2B IC50 (μM) standard assay.
Setting [3] is: HTS assay buffer (1.5 mM MgCl2 in dye loading buffer; 150 mM NaCl, 3 mM KCl in assay buffer), human GluN1/GluN2B, read-out: NR2B IC50 (μM) HTS assay.

On to `O=c1[nH]c2ncc(-c3cccc(C(F)(F)F)c3)cc2n1Cc1cncc(F)c1` [Example 258, 1-[(5-Fluoro-3-pyridyl)methyl]-6-[3-(trifluoromethyl)phenyl]-3H-imidazo[4,5-b]pyridin-2-one], for which the IC50 – broadly, the concentration needed to halve the response being measured – under setting [1] turned out to be 0.077 µM.

Regarding `Cn1c(=O)n(CC(=O)N2CC(F)C2)c2cc(-c3cc(C(F)F)cs3)cnc21` [Example 118, 6-[4-(Difluoromethyl)-2-thienyl]-1-[2-(3-fluoroazetidin-1-yl)-2-oxo-ethyl]-3-methyl-imidazo[4,5-b]pyridin-2-one], the IC50 under setting [1] is 0.02 µM.

Consider `COc1ccc(-c2cnc3[nH]c(=O)n(CC(=O)c4cccs4)c3c2)cc1F` [Example 457, 6-(3-Fluoro-4-methoxy-phenyl)-1-[2-oxo-2-(2-thienyl)ethyl]-3H-imidazo[4,5-b]pyridin-2-one], for which the IC50 under setting [2] worked out at 0.33 µM.

`Cn1c(=O)n(Cc2cccnc2)c2cc(-c3ccc(F)c(F)c3)cnc21` [Example 59, 6-(3,4-Difluorophenyl)-3-methyl-1-(3-pyridylmethyl)imidazo[4,5-b]pyridin-2-one]: the IC50 under setting [1] came to 0.246 µM.

For the molecule `Cc1noc(C)c1Cn1c(=O)[nH]c2ncc(-c3cccc(C#N)c3)cc21` [Example 513, 3-[1-[(3,5-Dimethylisoxazol-4-yl)methyl]-2-oxo-3H-imidazo[4,5-b]pyridin-6-yl]benzonitrile], the IC50 under setting [3] is > 29 µM.

Turning to `Cc1cccc(-c2cnc3[nH]c(=O)n(CCN4CCC4)c3c2)c1C` [Example 169, 1-[2-(Azetidin-1-yl)ethyl]-6-(2,3-dimethylphenyl)-3H-imidazo[4,5-b]pyridin-2-one], the IC50 under setting [1] turned out to be 0.217 µM.

As to `CCOc1ccc(F)cc1-c1cnc2[nH]c(=O)n(CC(=O)NC3CC3)c2c1` [Example 607, N-Cyclopropyl-2-[6-(2-ethoxy-5-fluoro-phenyl)-2-oxo-3H-imidazo[4,5-b]pyridin-1-yl]acetamide], the IC50 under setting [2] was 0.336 µM.

On to `Cc1noc(Cn2c(=O)n(C)c3ncc(-c4ccc(F)c(C)c4F)cc32)n1` [Example 573, 6-(2,4-Difluoro-3-methyl-phenyl)-3-methyl-1-[(3-methyl-1,2,4-oxadiazol-5-yl)methyl]imidazo[4,5-b]pyridin-2-one], for which the IC50 under setting [2] stood at 0.043 µM.

On to `Cn1c(=O)n(Cc2ccncc2)c2cc(-c3cccc(F)c3)cnc21` [Example 52, 6-(3-Fluorophenyl)-3-methyl-1-(4-pyridylmethyl)imidazo[4,5-1D]pyridin-2-one], for which the IC50 under setting [1] was found to be 3.33 µM.

For `Cn1c(=O)n(Cc2cncc(F)c2)c2cc(-c3cccc(OC(F)F)c3)cnc21` [Example 342, 6-[3-(Difluoromethoxy)phenyl]-1-[(5-fluoro-3-pyridyl)methyl]-3-methyl-imidazo[4,5-b]pyridin-2-one], the concentration for half-maximal inhibition (IC50) under setting [2] amounted to 0.138 µM.

For `Cc1cc(-c2cnc3c(c2)n(CC(=O)N(C)C)c(=O)n3C)sc1Cl` [Example 322, 2-[6-(5-Chloro-4-methyl-2-thienyl)-3-methyl-2-oxo-imidazo[4,5-b]pyridin-1-yl]-N,N-dimethyl-acetamide], the half-maximal inhibitory concentration (IC50) under setting [2] is 0.023 µM.

In the case of `CCOc1ccccc1-c1cnc2[nH]c(=O)n(CC(=O)NC3CC3)c2c1` [Example 456, N-Cyclopropyl-2-[6-(2-ethoxyphenyl)-2-oxo-3H-imidazo[4,5-1D]pyridin-1-yl]acetamide], under setting [2], the IC50 is 0.146 µM.

`Cc1csc(-c2cnc3[nH]c(=O)n(Cc4nc(C)no4)c3c2)c1` [Example 127, 1-[(3-Methyl-1,2,4-oxadiazol-5-yl)methyl]-6-(4-methyl-2-thienyl)-3H-imidazo[4,5-b]pyridin-2-one]: the half-inhibitory concentration (IC50) under setting [1] is 0.095 µM.

On to `Cn1c(=O)n(Cc2cncc(F)c2)c2cc(-c3ccc(F)c(C(F)F)c3)cnc21` [Example 546, 6-[3-(Difluoromethyl)-4-fluoro-phenyl]-1-[(5-fluoro-3-pyridyl)methyl]-3-methyl-imidazo[4,5-b]pyridin-2-one], for which, under setting [2], the IC50 turned out to be 0.024 µM.

Consider `Cc1cc(-c2cnc3c(c2)n(Cc2cncc(Cl)c2)c(=O)n3C)ccc1F` [Example 367, 1-[(5-Chloro-3-pyridyl)methyl]-6-(4-fluoro-3-methyl-phenyl)-3-methyl-imidazo[4,5-b]pyridin-2-one], for which, under setting [2], the IC50 was determined as 0.117 µM.

Turning to `Cc1ccc(C(F)(F)F)cc1-c1cnc2[nH]c(=O)n(CCN3CCC3)c2c1` [Example 172, 1-[2-(Azetidin-1-yl)ethyl]-6-[2-methyl-5-(trifluoromethyl)phenyl]-3H-imidazo[4,5-b]pyridin-2-one], the half-inhibitory concentration (IC50) under setting [1] was 0.326 µM.

For `O=c1[nH]c2ncc(-c3cccc(C(F)(F)F)c3)cc2n1Cc1cccnn1` [Example 232, 1-(Pyridazin-3-ylmethyl)-6-[3-(trifluoromethyl)phenyl]-3H-imidazo[4,5-b]pyridin-2-one], the IC50 under setting [1] was 0.017 µM.

In the case of `O=C(Cn1c(=O)[nH]c2ncc(-c3cccc(C(F)(F)F)c3)cc21)C1CCC1` [Example 262, 1-(2-cyclobutyl-2-oxo-ethyl)-6-[3-(trifluoromethyl)phenyl]-3H-imidazo[4,5-b]pyridin-2-one], the IC50 under setting [1] was 0.308 µM.

In the case of `Cc1cccc(-c2cnc3[nH]c(=O)n(CCN4CC(F)C4)c3c2)c1C` [Example 182, 6-(2,3-Dimethylphenyl)-1-[2-(3-fluoroazetidin-1-yl)ethyl]-3H-imidazo[4,5-b]pyridin-2-one], the 50% inhibitory concentration (IC50) under setting [1] is 1.74 µM.

Regarding `Cn1c(=O)n(Cc2cnccn2)c2cc(-c3cccc(F)c3)cnc21` [Example 55, 6-(3-Fluorophenyl)-3-methyl-1-(pyrazin-2-ylmethyl)imidazo[4,5-b]pyridin-2-one], the half-maximal inhibitory concentration (IC50) under setting [1] was found to be 3.03 µM.

For the molecule `Cc1ccc(Cn2c(=O)[nH]c3ncc(-c4cccc(C(F)(F)F)c4)cc32)cn1` [Example 235, 1-[(6-Methyl-3-pyridyl)methyl]-6-[3-(trifluoromethyl)phenyl]-3H-imidazo[4,5-b]pyridin-2-one], the 50% inhibitory concentration (IC50) under setting [1] amounted to 0.256 µM.

With `Cn1c(=O)n(CC(=O)N2CCC2)c2cc(-c3ccc(F)c(F)c3)cnc21` [Example 422, 1-[2-(Azetidin-1-yl)-2-oxo-ethyl]-6-(3,4-difluorophenyl)-3-methyl-imidazo[4,5-b]pyridin-2-one], the IC50 under setting [2] came to 0.01 µM.

Consider `Cn1c(=O)n(CC(=O)N2CC(F)(F)C2)c2cc(-c3ccc(F)c(C(F)F)c3)cnc21` [Example 586, 1-[2-(3,3-Difluoroazetidin-1-yl)-2-oxo-ethyl]-6-[3-(difluoromethyl)-4-fluoro-phenyl]-3-methyl-imidazo[4,5-b]pyridin-2-one], for which, under setting [2], the concentration for half-maximal inhibition (IC50) is 0.051 µM.

Take `Cc1ccc(-c2cnc3[nH]c(=O)n(Cc4ccccn4)c3c2)cc1` [Example 289, 6-(p-Tolyl)-1-(2-pyridylmethyl)-3H-imidazo[4,5-b]pyridin-2-one]: the IC50 under setting [1] turned out to be 7.08 µM.

Turning to `CCC(=O)Cn1c(=O)[nH]c2ncc(-c3ccc(F)c(C)c3)cc21` [Example 331, 6-(4-Fluoro-3-methyl-phenyl)-1-(2-oxobutyl)-3H-imidazo[4,5-b]pyridin-2-one], the concentration for half-maximal inhibition (IC50) under setting [2] amounted to 0.012 µM.

Consider `COc1cccc(-c2cnc3[nH]c(=O)n(Cc4ccccn4)c3c2)c1` [Example 288, 6-(3-Methoxyphenyl)-1-(2-pyridylmethyl)-3H-imidazo[4,5-b]pyridin-2-one], for which the half-inhibitory concentration (IC50) under setting [1] was 4.05 µM.

Regarding `O=C(Cn1c(=O)[nH]c2ncc(-c3cccc(C(F)(F)F)c3)cc21)N1CC2(CNC2)C1` [Example 207, 1-[2-(2,6-Diazaspiro[3.3]heptan-6-yl)-2-oxo-ethyl]-6-[3-(trifluoromethyl)phenyl]-3H-imidazo[4,5-b]pyridin-2-one], under setting [1], the IC50 worked out at 0.453 µM.

In the case of `Cc1nnc(Cn2c(=O)n(C)c3ncc(-c4cccc(C(F)(F)F)c4)cc32)o1` [Example 75, 3-Methyl-1-[(5-methyl-1,3,4-oxadiazol-2-yl)methyl]-6-[3-(trifluoromethyl)phenyl]imidazo[4,5-b]pyridin-2-one], the 50% inhibitory concentration (IC50) under setting [1] was 0.093 µM.

For `Cc1ccncc1Cn1c(=O)[nH]c2ncc(-c3ccc(F)c(C)c3F)cc21` [Example 278, 6-(2,4-Difluoro-3-methyl-phenyl)-1-[(4-methyl-3-pyridyl)methyl]-3H-imidazo[4,5-b]pyridin-2-one], the IC50 under setting [1] was 0.111 µM.

As for `Cc1cccc(-c2cnc3[nH]c(=O)n(CC(=O)N4CC(F)(F)C4)c3c2)c1` [Example 580, 1-[2-(3,3-Difluoroazetidin-1-yl)-2-oxo-ethyl]-6-(m-tolyl)-3H-imidazo[4,5-b]pyridin-2-one], under setting [2], the IC50 was found to be 0.026 µM.

On to `Cc1c(F)ccc(-c2cnc3c(c2)n(Cc2cnccn2)c(=O)n3C)c1F` [Example 139, 6-(2,4-Difluoro-3-methyl-phenyl)-3-methyl-1-(pyrazin-2-ylmethyl)imidazo[4,5-b]pyridin-2-one], for which the IC50 under setting [1] amounted to 0.084 µM.

Take `Cc1ccncc1Cn1c(=O)[nH]c2ncc(-c3ccc(F)c(F)c3)cc21` [Example 275, 6-(3,4-Difluorophenyl)-1-[(4-methyl-3-pyridyl)methyl]-3H-imidazo[4,5-b]pyridin-2-one]: the IC50 under setting [1] turned out to be 0.009 µM.

For `Cn1c(=O)n(CC(=O)N2CC(F)C2)c2cc(-c3cnc(C(F)(F)F)s3)cnc21` [Example 116, 1-[2-(3-Fluoroazetidin-1-yl)-2-oxo-ethyl]-3-methyl-6-[2-(trifluoromethyl)thiazol-5-yl]imidazo[4,5-b]pyridin-2-one], the half-inhibitory concentration (IC50) under setting [1] amounted to 0.705 µM.

Regarding `COc1cc(F)ccc1-c1cnc2[nH]c(=O)n(Cc3ccc(F)cc3)c2c1` [Example 501, 6-(4-Fluoro-2-methoxy-phenyl)-1-[(4-fluorophenyl)methyl]-3H-imidazo[4,5-b]pyridin-2-one], the 50% inhibitory concentration (IC50) under setting [3] was determined as 0.79 µM.

In the case of `O=C(Cn1c(=O)[nH]c2ncc(-c3cccc(C(F)(F)F)c3)cc21)N1CC(CCF)C1` [Example 536, 1-[2-[3-(2-Fluoroethyl)azetidin-1-yl]-2-oxo-ethyl]-6-[3-(trifluoromethyl)phenyl]-3H-imidazo[4,5-b]pyridin-2-one], the IC50 under setting [2] was found to be 0.163 µM.
